Molecules are shown by their SMILES.

Among the data in publication PMC10147936, “Dietary factors potentially impacting thiaminase I-mediated thiamine deficiency” (Scientific Reports, 2023) are IC50 values, retold here.

The target of the assay is T1, thiaminase I from C. botulinum (BcmE) (Clostridium botulinum, UniProt A5HZW3).
T1 construct: gene CBO0770
The experiment in a line: biochemical.

T1 sequence (A5HZW3 1-404): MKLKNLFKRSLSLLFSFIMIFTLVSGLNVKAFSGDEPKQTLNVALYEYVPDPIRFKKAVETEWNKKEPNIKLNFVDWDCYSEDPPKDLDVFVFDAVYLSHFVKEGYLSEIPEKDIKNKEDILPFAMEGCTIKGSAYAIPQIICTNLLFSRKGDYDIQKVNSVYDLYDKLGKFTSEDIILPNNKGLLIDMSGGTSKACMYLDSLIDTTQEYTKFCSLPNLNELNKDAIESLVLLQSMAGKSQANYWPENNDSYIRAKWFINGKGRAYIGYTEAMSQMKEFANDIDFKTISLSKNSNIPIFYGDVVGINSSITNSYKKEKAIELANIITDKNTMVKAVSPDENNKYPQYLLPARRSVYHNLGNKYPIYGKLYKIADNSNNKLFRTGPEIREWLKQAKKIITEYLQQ

Broadly, the IC50 is the concentration needed to halve the response being measured. `O=C1O[C@H]([C@@H](O)CO)C(O)=C1O` [ascorbic acid] came in with an IC50 of 266 nM.
